Test [1] deals with NCI-H661. The experiment in a line: Antiproliferative activity against human NCI-H661 cells measured after 48 hrs by MTT assay. Type of test: functional, cell-based. Particulars: for IC50: NCI-H661, 48 h. In general terms: Formazan colour is commonly taken as a measure of viable cells.
For test [2], the system named is A549. The experiment in a line: Antiproliferative activity against human A549 cells measured after 48 hrs by MTT assay. The settings on record: for IC50: A549, 48 h. It is filed as functional, cell-based.
The test system of test [3] is NCI-H1299. Briefly: Antiproliferative activity against human NCI-H1299 cells measured after 48 hrs by MTT assay. Type of test: functional, cell-based. The settings on record: for IC50: NCI-H1299, 48 h.
Test [4] has as its system NCI-H1299. The experiment in a line: Potentiation of cisplatin-induced cytotoxicity against human NCI-H1299 cells assessed as combination index at 1:9 ratio of cisplatin to compound measured after 48 hrs by MTT assay. It is filed as functional.
The subject of test [5] is A549. The experiment in a line: Antiproliferative activity against human A549 cells measured after 24 hrs by MTT assay. Type of test: functional, cell-based.
For test [6], the system named is A549. The experiment in a line: Inhibition of colony formation in human A549 cells assessed as reduction in number of colonies at 85 to 170 uM measured after 48 hrs by colony formation assay. Type of test: functional, cell-based. Particulars: dose 85-170 µM.
The test system of test [7] is NCI-H661. The experiment in a line: Potentiation of cisplatin-induced cytotoxicity against human NCI-H661 cells assessed as combination index at 1:9 ratio of cisplatin to compound measured after 48 hrs by MTT assay. Type of test: functional.
In test [8] the test system is NCI-H1299. Briefly: Potentiation of raloxifene-induced cytotoxicity against human NCI-H1299 cells assessed as combination index at 1:5 ratio of raloxifene to compound measured after 48 hrs by MTT assay. Type of test: functional.
The test system of test [9] is NCI-H1299. The experiment in a line: Antiproliferative activity against human NCI-H1299 cells measured after 72 hrs by MTT assay. It is filed as functional, cell-based.
Test [10] has as its system NCI-H1299. Briefly: Antimigratory activity against human NCI-H1299 cells assessed as reduction in wound closure measured after 24 hrs by wound healing assay. Type of test: functional, cell-based.
Test [11] has as its system A549. The experiment in a line: Induction of apoptosis in human A549 cells assessed as increase in apoptotic cells at 340 uM measured after 48 hrs by Annexin V-FITC/PI staining based flow cytometry relative to control. It is filed as functional.
Test [12] has as its system NCI-H1299. Briefly: Antiproliferative activity against human NCI-H1299 cells measured after 24 hrs by MTT assay. It is filed as functional, cell-based.
Test [13] deals with A549. The experiment in a line: Reduction in PDE5 protein expression in human A549 cells at 0.25 to 0.5 IC50 measured after 48 hrs by Western blot analysis. Type of test: functional, cell-based. Background: Immunoblotting shows a protein as a band on a membrane.
The test system of test [14] is NCI-H1299. Briefly: Potentiation of raloxifene-induced cytotoxicity against human NCI-H1299 cells assessed as fold reduction in raloxifene IC50 at 1:5 ratio of raloxifene to compound measured after 48 hrs by MTT assay relative to raloxifene alone. It is filed as functional.
Test [15] has as its system NCI-H1299. Briefly: Potentiation of cisplatin-induced cytotoxicity against human NCI-H1299 cells assessed as fold reduction in cisplatin IC50 at 1:9 ratio of cisplatin to compound measured after 48 hrs by MTT assay relative to cisplatin alone. Type of test: functional.
Test [16] has as its system A549. Briefly: Potentiation of cisplatin-induced cytotoxicity against human A549 cells assessed as fold reduction in cisplatin IC50 at 1:7 ratio of cisplatin to compound measured after 48 hrs by MTT assay relative to cisplatin alone. It is filed as functional.
Test [17] has as its system NCI-H661. The experiment in a line: Antiproliferative activity against human NCI-H661 cells measured after 72 hrs by MTT assay. Type of test: functional, cell-based.
Test [18] has as its system NCI-H1299. The experiment in a line: Antiproliferative activity against human NCI-H1299 cells by MTT assay. Type of test: functional, cell-based. Particulars: time 24-72 hrs, TDE = time-dependent effect.
Test [19] relates to A549. Briefly: Potentiation of raloxifene-induced cytotoxicity against human A549 cells assessed as combination index at 1:4 ratio of raloxifene to compound measured after 48 hrs by MTT assay. It is filed as functional.
The subject of test [20] is A549. Briefly: Antiproliferative activity against human A549 cells by MTT assay. It is filed as functional, cell-based. The settings on record: time 24-72 hrs, TDE = time-dependent effect.
Test [21] has as its system NCI-H661. Briefly: Antiproliferative activity against human NCI-H661 cells measured after 24 hrs by MTT assay. Type of test: functional, cell-based.
The subject of test [22] is A549. The experiment in a line: Cell cycle arrest in human A549 cells assessed as increase in cell population at G0/G1 phase at 85 uM measured after 48 hrs by propidium iodide staining based flow cytometry. It is filed as functional.
For test [23], the system named is A549. Briefly: Inhibition of colony formation in human A549 cells assessed as reduction in size of colonies at 85 to 170 uM measured after 48 hrs by colony formation assay. Type of test: functional, cell-based. The settings on record: dose 85-170 µM.
Test [24] relates to A549. Briefly: Potentiation of raloxifene-induced cytotoxicity against human A549 cells assessed as fold reduction in raloxifene IC50 at 1:4 ratio of raloxifene to compound measured after 48 hrs by MTT assay relative to raloxifene alone. It is filed as functional.
In test [25] the test system is NCI-H661. The experiment in a line: Potentiation of raloxifene-induced cytotoxicity against human NCI-H661 cells assessed as fold reduction in raloxifene IC50 at 1:5 ratio of raloxifene to compound measured after 48 hrs by MTT assay relative to raloxifene alone. Type of test: functional.
The test system of test [26] is NCI-H661. The experiment in a line: Potentiation of cisplatin-induced cytotoxicity against human NCI-H661 cells assessed as fold reduction in cisplatin IC50 at 1:9 ratio of cisplatin to compound measured after 48 hrs by MTT assay relative to cisplatin alone. Type of test: functional.
Test [27] has as its system A549. Briefly: Reduction in Bcl-2 gene expression in human A549 cells at 0.1 IC50 measured after 48 hrs by qRT-PCR analysis. It is filed as functional, cell-based. In general terms: Quantitative PCR measures a nucleic acid by following its amplification.
Test [28] concerns A549. The experiment in a line: Reduction in PDE5 gene expression in human A549 cells at 0.1 IC50 measured after 48 hrs by qRT-PCR analysis. Type of test: functional, cell-based.
Test [29] has as its system NCI-H661. Briefly: Potentiation of raloxifene-induced cytotoxicity against human NCI-H661 cells assessed as combination index at 1:5 ratio of raloxifene to compound measured after 48 hrs by MTT assay. Type of test: functional.
Test [30] relates to A549. Briefly: Potentiation of cisplatin-induced cytotoxicity against human A549 cells assessed as combination index at 1:7 ratio of cisplatin to compound measured after 48 hrs by MTT assay. Type of test: functional.
The test system of test [31] is A549. The experiment in a line: Antiproliferative activity against human A549 cells measured after 72 hrs by MTT assay. It is filed as functional, cell-based.
The subject of test [32] is NCI-H661. Briefly: Antiproliferative activity against human NCI-H661 cells by MTT assay. It is filed as functional, cell-based. Particulars: time 24-72 hrs, TDE = time-dependent effect.

Active and inactive are the calls of the source. The calls are words filed in the database; no cut-off is given here. A value given as a limit tells only on which side of the number the result lay.

A word on the IC50: it is the concentration at which inhibition is half-maximal. A low value points to higher potency. On to `CCCc1nn(C)c2c(=O)[nH]c(-c3cc(S(=O)(=O)N4CCN(C)CC4)ccc3OCC)nc12` [SILDENAFIL], for which the IC50 in the test on NCI-H661 [1], with A549 [2] and in the test with NCI-H1299 [3] was over 500 µM throughout.
As to `COc1ccc(CNc2nc(N3CCC[C@H]3CO)ncc2C(=O)NCc2ncccn2)cc1Cl` [AVANAFIL], the Activity result in the test with NCI-H661 [1] was “Dose-Dependent Effect”; in the test with A549 [2] it was “Dose-Dependent Effect”; with A549 [5], “Dose-Dependent Effect”; with NCI-H1299 [9] it was “Dose-Dependent Effect”; with NCI-H1299 [10], “Dose-Dependent Effect”; in the test on A549 [11], 44%. Further, the Activity entry was “Dose-Dependent Effect” in the test on NCI-H1299 [12]; “Dose-Dependent Effect” in the test with A549 [13]; “Dose-Dependent Effect” in the test on NCI-H1299 [3]; “Dose-Dependent Effect” in the test with NCI-H661 [17]; “Tde” with NCI-H1299 [18]; “Tde” with A549 [20]. In addition, the Activity result in the test on NCI-H661 [21] was “Dose-Dependent Effect”; in the test with A549 [31] it was “Dose-Dependent Effect”; in the test with NCI-H661 [32], “Tde”. The IC50 amounted to 186 µM in the test with NCI-H661 [1]; 170 µM with A549 [2]; 127 µM with A549 [5] (A549, 24 h); 169 µM in the test with NCI-H1299 [9] (NCI-H1299, 72 h); 162 µM with NCI-H1299 [12] (NCI-H1299, 24 h); 184 µM with NCI-H1299 [3]. Further, the IC50 is 78.5 µM in the test on NCI-H661 [17] (NCI-H661, 72 h); 264 µM in the test on NCI-H661 [21] (NCI-H661, 24 h); 131 µM in the test on A549 [31] (A549, 72 h). The CI in the test on NCI-H1299 [4] is reported as 0.69; in the test with NCI-H661 [7], 0.89; in the test on NCI-H1299 [8], 0.73; in the test with A549 [19], 0.99; with NCI-H661 [29], 0.9; in the test on A549 [30], 0.95. Further, the inhibition entry in the test on A549 [6] and with A549 [23] was “Active” throughout. Also, the “fold change (FC)” value worked out at 3 in the test on NCI-H1299 [14]; 2.8 with NCI-H1299 [15]; 2.1 in the test with A549 [16]; 1.9 in the test with A549 [24]; 2.7 in the test on NCI-H661 [25]; 2.4 in the test with NCI-H661 [26]. Moreover, the result in the test on A549 [22], in the test with A549 [27] and in the test on A549 [28] was Active.

(Values after ChEMBL document CHEMBL5584328, “Integrating computational and experimental chemical biology revealed variable anticancer activities of phosphodiesterase isoenzyme 5 inhibitors (PDE5i) in lung cancer” (RSC Med Chem, 2024).)
